#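 Interpolation was linear, between the two tested concentrations surrounding the appropriate level; five concentrations were tested over 48 hours in 96-well plates. The concentration for 50% growth inhibition is given as GI50.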 Active and inactive are the calls of the source. Rule as the data show it: active = GI50 up to about 1.1 µM and inactive = higher. Residues, ends and D or L forms follow the SMILES beside them. *: point of attachment. Boc = CC(C)(C)OC(=O)*
# How the values were obtained:
# Test in all cases: NCI-60 cell line screen, 48 h
# [1] = tested on: BT-549
# [2] = tested on: T47D
# [3] = tested on: DLD-1
# [4] = tested on: DMS-114
# [5] = tested on: DMS-273
# [6] = tested on: M19-MEL
# [7] = tested on: XF498
# [8] = tested on: HOP-18
# [9] = tested on: RXF 631
SMILES,GI50 [1],GI50 [2],also measured
Cc1ccc(C2=C(Cl)C(=O)C(c3ccc(C)cc3)=C(Cl)C2=O)cc1,> 100 µM (inactive),> 100 µM (inactive),
CCOC(=O)CCC1(C(=O)O[C@@H]2C[C@H](C)CC[C@H]2C(C)C)CCCCC1=O (some centres not stated),> 100 µM (inactive),34.8 µM (inactive),
CN(C)CCCNC(=O)CNC(=O)c1cc(NC(=O)c2cc(NC(=O)c3cc(NC(=O)CCNC(=O)c4cc(NC(=O)c5cc(NC(=O)c6nccn6C)cn5C)cn4C)cn3C)cn2C)cn1C,,> 100 µM (inactive),
CCOC(=O)c1nc2c(Cl)c3ncccc3cc2[nH]c1=O,21.5 µM (inactive),,
CCOC(=O)c1cc2c([nH]1)c(OC(C)=O)cc1c2ccn1Cc1ccccc1,> 100 µM (inactive),> 100 µM (inactive),
Oc1c(C2=NNC(c3cccs3)C2)ccc2ccccc12 (configuration not stated),32.5 µM (inactive),4.42 µM (inactive),
COc1cc2c(c3oc4c(O)cccc4c(=O)c13)CC(C(C)(O)CCl)O2 (configuration not stated),3.85 µM (inactive),2.8 µM (inactive),
CSC1=NN=C(SC)NN1,0.151 µM (active),0.142 µM (active),
CCOC(=O)c1oc2ccc(OC)c3c2c1CCC3,,,GI50 [3]: 64.9 µM (inactive); GI50 [4]: > 100 µM (inactive); GI50 [5]: > 100 µM (inactive); GI50 [6]: > 100 µM (inactive); GI50 [7]: > 100 µM (inactive)
Cc1nc2c3c(ccc2nc1O)C(=O)c1ccccc1C3=O,,,GI50 [3]: 31.8 µM (inactive); GI50 [4]: 44.8 µM (inactive); GI50 [8]: 66.7 µM (inactive); GI50 [6]: > 100 µM (inactive); GI50 [7]: > 100 µM (inactive)
CC(=O)/C=C1\CC(=O)Nc2ccccc2N1,,,GI50 [3]: > 100 µM (inactive); GI50 [4]: > 100 µM (inactive)
CC1=C(C(=O)CC(=O)C(=O)Nc2ccc(C)c(C)c2)Sc2ccccc2N1,,,GI50 [3]: > 100 µM (inactive); GI50 [4]: > 100 µM (inactive); GI50 [5]: > 100 µM (inactive); GI50 [8]: > 100 µM (inactive); GI50 [6]: > 100 µM (inactive); GI50 [7]: > 100 µM (inactive)
N#CCCN(CCN(CCN(C(=O)Nc1ccccc1)c1ccccc1)C(=O)Nc1ccccc1)C(=O)Nc1ccccc1,> 100 µM (inactive),48.4 µM (inactive),
CC(C)=CC1CC(C)C2(CCC3(C)CC4C(C(=O)CC4(C)O)/C(C=O)=C\CC32)O1 (configuration not stated),0.177 µM (active),0.0574 µM (active),
N=C/N=C/C(=S)O[C@@H]1C(=O)N2CCC[C@@]23CCCC[C@@H]13,,> 12.5 µM (inactive),
S=c1[nH]c2c(Cl)c(Cl)c(Cl)c(Cl)c2[nH]1,17.9 µM (inactive),52.5 µM (inactive),
Nc1c(C(=O)O)nnc2cc(Cl)c(Cl)cc12,72.6 µM (inactive),> 100 µM (inactive),
CC(/C=C/C=C\C=C\C=C(/C)C(=O)NC(C)CO)=C\C(C)C(O)/C(C)=C/C(C)CCc1ccccc1 (configuration not stated),15.2 µM (inactive),3.61 µM (inactive),GI50 [3]: 13.7 µM (inactive); GI50 [4]: < 0.01 µM (active); GI50 [5]: 1.87 µM (inactive); GI50 [8]: 10.8 µM (inactive); GI50 [6]: 5.15 µM (inactive); GI50 [7]: 7.71 µM (inactive)
Cc1nnc([C@@]2(C)CC[C@H]3[C@@H](CCC4=CC(=O)CC[C@@]43C)[C@@H]2CC#N)o1,> 100 µM (inactive),,
O=c1c(-c2c(-c3ccccc3)oc3ccc(Cl)cc3c2=O)c(-c2ccccc2)oc2ccc(Cl)cc12,,> 100 µM (inactive),
COC(=O)[C@]1(C)CC[C@]2(C)CC[C@]3(C)C4[C@H]5Oc6c(cc7c(c6C)CCC6[C@@]7(C)CC[C@@]7(C)C8[C@](C)(CCC[C@@]8(C)C(=O)OC)CC[C@]67C)O[C@H]5c5c(cc6c(c5C)O[C@@]5(C)C7=CC=C8[C@@](C)(CC[C@@]9(C)[C@@H]%10C[C@](C)(C(=O)OC)CC[C@]%10(C)CC[C@]89C)C7=CC(=O)[C@@]5(O)O6)[C@]4(C)CC[C@@]3(C)C2C1 (some centres not stated),7.03 µM (inactive),2.11 µM (inactive),

SMILES,GI50 [1],GI50 [2],also measured
O=[PH](O)c1cc2c3ccccc3ccc2c2ccccc12,,,GI50 [3]: > 100 µM (inactive); GI50 [4]: > 100 µM (inactive); GI50 [5]: > 100 µM (inactive); GI50 [8]: > 100 µM (inactive); GI50 [6]: > 100 µM (inactive); GI50 [7]: 67.3 µM (inactive)
COc1ccc(C2SCC(=O)N2c2ccc(-c3ccc(-n4c(-c5ccccc5)nc5ccccc5c4=O)cc3)cc2)cc1 (configuration not stated),22.8 µM (inactive),21 µM (inactive),
COc1cc2c(cc1OC)C1C=NC(C(=O)O)(C2)c2ccccc21 (configuration not stated),,,GI50 [3]: > 100 µM (inactive); GI50 [4]: > 100 µM (inactive); GI50 [5]: > 100 µM (inactive); GI50 [6]: > 100 µM (inactive); GI50 [9]: > 100 µM (inactive)
O=C1CC(NC(=O)C(F)(F)F)c2c1csc2Br (configuration not stated),44.1 µM (inactive),3.4 µM (inactive),
C=CCc1cc(-c2cc(CC=C)c(O)c(CNCCCl)c2)cc(CNCCCl)c1O,,,GI50 [3]: 21.5 µM (inactive); GI50 [4]: 21.1 µM (inactive); GI50 [6]: 17.1 µM (inactive)
CN1C(=O)C(=CN)C(=O)N(C)C1=O,,,GI50 [3]: > 100 µM (inactive); GI50 [4]: > 100 µM (inactive); GI50 [8]: > 100 µM (inactive); GI50 [6]: > 100 µM (inactive); GI50 [7]: > 100 µM (inactive)
Cc1cc2c(cc1Cl)SC(N/N=C(\N)c1ccc(Cl)cc1)=NS2(=O)=O,46.7 µM (inactive),53.3 µM (inactive),
CC(C)(C)OC(=O)N1CCc2[nH][nH]c(=O)c2C1,> 100 µM (inactive),,
Cc1nc(Nc2nc3ccccc3[nH]2)nc(Cl)c1CCCl,> 100 µM (inactive),> 100 µM (inactive),
Cc1ccc2c(c1)CNc1ccc(C)cc1CN2,,,GI50 [3]: > 100 µM (inactive); GI50 [4]: > 100 µM (inactive); GI50 [5]: > 100 µM (inactive); GI50 [8]: > 100 µM (inactive); GI50 [6]: > 100 µM (inactive); GI50 [7]: > 100 µM (inactive)
O=C1C(Cl)C(c2ccccc2)N1n1cnc2ccccc2c1=O (configuration not stated),,,GI50 [3]: > 100 µM (inactive); GI50 [4]: > 100 µM (inactive); GI50 [5]: > 100 µM (inactive); GI50 [8]: 26.5 µM (inactive); GI50 [6]: > 100 µM (inactive); GI50 [7]: > 100 µM (inactive)
CO[C@@H]1C[C@H](OC(N)=O)[C@@H]2C=C[C@@H]3/C=C(C)/C=C/[C@@H](C)[C@H]([C@H](C)[C@H](O)[C@@H](C)NC(C)=O)OC(=O)/C=C/C=C(C)\C=C\[C@]3(C)[C@@H]2C1,2.16 µM (inactive),< 0.01 µM (active),
COc1ccc(C(C#N)NC23CC4CC(CC(C4)C2)C3)cc1 (configuration not stated),> 100 µM (inactive),> 100 µM (inactive),
COC(=O)c1cc(NC(=O)Cc2c[nH]c3ccccc23)cn1C,57.5 µM (inactive),> 100 µM (inactive),
COc1ccc(OC)c2sc(N3C(=O)/C(=C/c4ccc(SC)cc4)N=C3c3ccccc3)nc12,29.4 µM (inactive),26.3 µM (inactive),
NS(=O)(=O)c1ccc2c(c1)OCCOCCOCCOCCO2,> 100 µM (inactive),> 100 µM (inactive),
CSC12c3cc(C)n(-c4ccc(I)cc4)c3CC(C)(C)CN1C(=O)C2Oc1ccccc1 (configuration not stated),> 100 µM (inactive),5.97 µM (inactive),
CCOC(=O)/C(C#N)=C1\c2c([nH]c(=S)[nH]c2=O)Oc2ccc3ccccc3c21,> 100 µM (inactive),34.7 µM (inactive),
O=C1CCCC/C1=C(\Br)I,17.6 µM (inactive),7 µM (inactive),
Cc1cn(C2CC(COCc3ccccc3)N(CCO[Si](C)(C)C(C)(C)C)O2)c(=O)[nH]c1=O (configuration not stated),,13.5 µM (inactive),
O=C1CSC(c2ccccc2[N+](=O)[O-])N1c1ccc(-c2ccc(-n3c(-c4ccccc4)nc4ccccc4c3=O)cc2)cc1 (configuration not stated),> 100 µM (inactive),29.1 µM (inactive),

SMILES,GI50 [1],GI50 [2],also measured
CC1=CC(=O)N(n2c(-c3ccccc3)n[nH]c2=O)C1=O,> 100 µM (inactive),> 100 µM (inactive),
COC(=O)/C(=C/c1ccc(OC)cc1)C(C(=O)O)=C1CCCC1,,,GI50 [3]: > 100 µM (inactive); GI50 [5]: > 100 µM (inactive); GI50 [6]: > 100 µM (inactive); GI50 [9]: > 100 µM (inactive); GI50 [7]: 11.7 µM (inactive)
Cc1ccc(S(=O)(=O)N2C[C@](O)(c3ccccc3)[C@H]2C)cc1,,47.9 µM (inactive),
NC(CCc1nc(-c2ccccc2)cs1)C(=O)O (configuration not stated),,,GI50 [3]: > 100 µM (inactive); GI50 [4]: > 100 µM (inactive); GI50 [5]: > 100 µM (inactive); GI50 [8]: > 100 µM (inactive); GI50 [6]: > 100 µM (inactive)
CC(=O)OCC1OC(n2c(=O)[nH]c(=O)c3sccc32)C(Br)C1OC(C)=O (configuration not stated),> 100 µM (inactive),,
O=C1C(N2CCN(c3ccccn3)CC2)=C(Cl)C(=O)c2ncccc21,> 10 µM (inactive),2.06 µM (inactive),
Cc1cs/c(=N\C(P(=O)(O)O)P(=O)(O)O)n1C,> 100 µM (inactive),,
CC(=O)OC1CC2C(C)(C)C(=O)C=C[C@]2(C)C2CCC3(C)C(c4ccoc4)[C@@H](O)[C@H]4O[C@]43[C@]12C (some centres not stated),,,GI50 [3]: 20.4 µM (inactive); GI50 [4]: 20.1 µM (inactive); GI50 [5]: 22.1 µM (inactive); GI50 [8]: 21.6 µM (inactive); GI50 [6]: 18.7 µM (inactive)
C[C@@H]1OCC(O)C([C@H]2OC(c3ccccc3)=N[C@H]2CO)O1 (some centres not stated),,> 100 µM (inactive),
COC1=CC(=O)[C@H]2[C@H](C)C(c3ccccc3)[C@@]2(C)C1=O (some centres not stated),,,GI50 [3]: > 100 µM (inactive); GI50 [5]: > 100 µM (inactive); GI50 [6]: > 100 µM (inactive); GI50 [7]: > 100 µM (inactive)
C[n+]1c(-c2ccc(/C=N/NC(=O)C(=O)N/N=C/c3ccc(-c4cn5ccsc5[n+]4C)cc3)cc2)cn2ccsc21,,> 100 µM (inactive),
CC1(C)N=C(N)N=C(N)N1c1cccc(OCCOc2ccc([N+](=O)[O-])cc2)c1,12.9 µM (inactive),,
C=C(C)C1CCC2(C)C1CCC1(C)C2CCC2C3(C)C4OC(OC4=O)C(C)(C)C3CCC21C (configuration not stated),> 100 µM (inactive),64.6 µM (inactive),
COC(=O)[C@@H](COC(=O)/C=C/c1ccc(OC(C)=O)c(OC(C)=O)c1)NC(=O)/C=C/c1ccc(OC(C)=O)c(OC(C)=O)c1,60.8 µM (inactive),11.1 µM (inactive),
CC(=O)c1cc2c(s1)C(=O)c1ccsc1C2=O,0.182 µM (active),1.31 µM (inactive),
C=C1C[C@@H](O)[C@@H](Br)C(C)(C)[C@@]12C=CC(=O)CC2,> 100 µM (inactive),> 100 µM (inactive),
O=C1O/C(=C\c2ccc(O)c(Br)c2)C(c2ccc(O)cc2)=C1Cl,,58.3 µM (inactive),
CC(C)=CCC/C(C)=C\CC/C(C)=C/CO,,31 µM (inactive),
CC(C)(C)OC(=O)NC(Cc1ccc(O)cc1)C(=O)NC(CCCCN)C(=O)O (stereo not drawn) (Boc-Tyr-Lys-OH; configuration not given here),20 µM (inactive),15.3 µM (inactive),
Cn1cc2c3ccccc3nc-2c2ccccc21 [ISOCRYPTOLEPINE],3.26 µM (inactive),2.07 µM (inactive),
COS(C)(=O)=O [METHANESULFONIC ACID METHYL ESTER],> 2 µM (inactive),> 2 µM (inactive),
